Usually TGI stands for the concentration at which net growth stops. Higher therefore signals lower sensitivity of the cells. By GI50 is commonly meant the concentration that inhibits growth by half.

Consider 14 molecules from PubChem BioAssay (NCI).

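Following 48 hours of exposure in 96-well plates, responses at five concentrations were used to interpolate endpoints linearly. GI50 = concentration required for 50% inhibition of growth. Definition used: TGI = concentration required for complete inhibition of growth.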

Some test systems named below: HL-60(TB) leukemia; SK-MEL-2 melanoma; ACHN renal; IGROV1 ovarian; SF-295 CNS; NCI-H460 lung; U251 CNS; SK-MEL-5 melanoma; HCT-116 colon; CAKI-1 renal.
Holding throughout (experiment): DTP human tumour cell line panel, 48 h

Regarding `COc1ccc2nc3cc(Cl)ccc3c(NCCCN(C)CCCNc3ccc4ncn5c6ccccc6c(=O)c3c45)c2c1`, the TGI was found to be 2.2 µM in the test on HL-60(TB) leukemia; 7.23 µM with SK-MEL-2 melanoma; 3.93 µM in the test with ACHN renal; 4.37 µM with IGROV1 ovarian; 5.37 µM in the test with SF-295 CNS; 0.504 µM in the test with NCI-H460 lung. Besides, the TGI was 1.63 µM in the test on U251 CNS, 4.62 µM with SK-MEL-5 melanoma, 4.86 µM in the test on HCT-116 colon and 4.36 µM in the test with CAKI-1 renal.
Consider `CC(C)OP(=O)(OC(C)C)C(=Nc1ccc(N=C(NNc2ccc([N+](=O)[O-])cc2)P(=O)(OC(C)C)OC(C)C)cc1)NNc1ccc([N+](=O)[O-])cc1`, for which the TGI with HL-60(TB) leukemia, in the test with SK-MEL-2 melanoma, in the test with ACHN renal, with IGROV1 ovarian, in the test on U251 CNS and with SK-MEL-5 melanoma was above 100 µM throughout. Further, the TGI in the test on HCT-116 colon and in the test on CAKI-1 renal was above 100 µM in each case.
In the case of `O[C@@H]1CCCCN1Cc1cc2cc3c(cc2c2cc(OCc4ccccc4)ccc12)OCO3`, the GI50 in the test with HL-60(TB) leukemia is 1.5 µM; with SK-MEL-2 melanoma, 1.7 µM; in the test on ACHN renal, 1.47 µM; in the test on IGROV1 ovarian it was 1.68 µM; in the test with SF-295 CNS, 1.59 µM; with NCI-H460 lung, 1.37 µM. Further, the GI50 is 1.52 µM with U251 CNS, 1.62 µM with SK-MEL-5 melanoma, 1.04 µM in the test with HCT-116 colon and 1.57 µM with CAKI-1 renal. Also, the TGI with HL-60(TB) leukemia worked out at 3.57 µM; in the test with SK-MEL-2 melanoma, 3.16 µM; with ACHN renal, 2.79 µM; with IGROV1 ovarian, 3.11 µM; with SF-295 CNS, 3.03 µM; in the test on NCI-H460 lung, 2.76 µM. For the same molecule, the TGI was 2.95 µM with U251 CNS, 3.09 µM with SK-MEL-5 melanoma, 2.21 µM in the test on HCT-116 colon and 2.91 µM in the test on CAKI-1 renal.
On to `CS(=O)(=O)Sc1ccc(Cl)cc1`, for which the TGI in the test on HL-60(TB) leukemia amounted to 17.5 µM; in the test with SK-MEL-2 melanoma, 25.6 µM; with IGROV1 ovarian, 8 µM; with SF-295 CNS, 9.21 µM; in the test with NCI-H460 lung, 27.9 µM; in the test on U251 CNS, 11.5 µM. Moreover, the values for the TGI in the test on SK-MEL-5 melanoma, with HCT-116 colon and with CAKI-1 renal were 20.2 µM, 18.6 µM and 24.4 µM, respectively.
For `CCOC(=O)/C(C#N)=c1/s/c(=C(\O)N/N=C/c2ccc(OC)cc2)c(=N)n1-c1ccccc1`, the TGI in the test on HL-60(TB) leukemia, in the test on ACHN renal, with IGROV1 ovarian, with SF-295 CNS, in the test on NCI-H460 lung and in the test on U251 CNS was above 100 µM each time. Further, the TGI with SK-MEL-5 melanoma and in the test with HCT-116 colon was above 100 µM throughout.
For `NC(C(=O)O)C(O)c1cnc[nH]1` (stereo unspecified), the TGI in the test on HL-60(TB) leukemia, in the test on SK-MEL-2 melanoma, with ACHN renal, with IGROV1 ovarian, in the test with SF-295 CNS and with NCI-H460 lung was above 100 µM throughout. The TGI in the test with U251 CNS, in the test with SK-MEL-5 melanoma, in the test on HCT-116 colon and in the test on CAKI-1 renal was above 100 µM each time.
For the molecule `C[N+](C)(C)CC(=O)N/N=C\c1c(O)ccc2ccccc12`, the TGI with HL-60(TB) leukemia was 43.3 µM; in the test with SK-MEL-2 melanoma, above 100 µM; in the test on ACHN renal it was above 100 µM; with IGROV1 ovarian, above 100 µM; in the test on SF-295 CNS, above 100 µM; in the test on NCI-H460 lung it was 70.5 µM. Further, the total growth inhibition concentration (TGI) with U251 CNS is above 100 µM; with SK-MEL-5 melanoma, 39.3 µM; in the test on HCT-116 colon, above 100 µM; in the test on CAKI-1 renal, above 100 µM.
As for `O=c1cc(O)c1=O`, the TGI in the test on HL-60(TB) leukemia, in the test with SK-MEL-2 melanoma, in the test with ACHN renal, with IGROV1 ovarian, in the test with SF-295 CNS and in the test on NCI-H460 lung was above 100 µM in each case. In addition, the TGI in the test with U251 CNS, with SK-MEL-5 melanoma, in the test with HCT-116 colon and in the test on CAKI-1 renal was above 100 µM in each case.
As to `CCCCCCCCCCCCOC(=N)N1CCOCC1`, the TGI turned out to be 3.26 µM in the test with HL-60(TB) leukemia; 23.9 µM in the test with SK-MEL-2 melanoma; 27.7 µM in the test on ACHN renal; 27.7 µM with IGROV1 ovarian; 31.7 µM with SF-295 CNS; 30.2 µM in the test on NCI-H460 lung. The TGI stood at 21.9 µM in the test with U251 CNS, 23.4 µM with SK-MEL-5 melanoma, 22.6 µM in the test on HCT-116 colon and 17.3 µM in the test with CAKI-1 renal.
Regarding `Nc1ccc(Oc2ccc(C3(c4ccc(Oc5ccc(N)c(O)c5)cc4)C4CC5CC(C4)CC3C5)cc2)cc1O`, the TGI came to 5.3 µM with HL-60(TB) leukemia; 3.88 µM in the test with SK-MEL-2 melanoma; 3.18 µM with ACHN renal; 14.9 µM in the test on SF-295 CNS; 3.02 µM with SK-MEL-5 melanoma; 5.03 µM with CAKI-1 renal.
Consider `C/C(=C\COP(=O)(O)CP(=O)(O)O)CC/C=C(\C)CNc1ccccc1`, for which the TGI in the test with HL-60(TB) leukemia, in the test with SK-MEL-2 melanoma, in the test on ACHN renal, with IGROV1 ovarian, in the test on SF-295 CNS and in the test with NCI-H460 lung was above 100 µM throughout. Further, the concentration for total growth inhibition (TGI) in the test with U251 CNS, in the test on SK-MEL-5 melanoma, in the test with HCT-116 colon and in the test with CAKI-1 renal was above 100 µM each time.
Take `COC(=O)C(Cc1ccc2c(c1)OCO2)(NC(=O)c1ccccc1)P(=O)(OC)OC` (stereo unspecified): the TGI with HL-60(TB) leukemia, in the test with SK-MEL-2 melanoma, with ACHN renal, in the test on IGROV1 ovarian, with SF-295 CNS and in the test on NCI-H460 lung was above 100 µM throughout. Also, the TGI with U251 CNS, in the test with SK-MEL-5 melanoma, in the test with HCT-116 colon and in the test with CAKI-1 renal was above 100 µM each time.
In the case of `Cc1nnc(NS(=O)(=O)c2ccc(N=Nc3c(O)c(C(=O)O)cc4ccccc34)cc2)s1`, the TGI in the test on HL-60(TB) leukemia, in the test on SK-MEL-2 melanoma, in the test with ACHN renal, in the test on IGROV1 ovarian, with SF-295 CNS and in the test with NCI-H460 lung was above 100 µM in each case. Further, the TGI in the test on U251 CNS, with SK-MEL-5 melanoma, with HCT-116 colon and with CAKI-1 renal was above 100 µM throughout.
On to `COc1ccc2c(c1)SC1=Nc3sc4cc(OC)ccc4[n+]3CN12`, for which the TGI is 63.5 µM in the test on HL-60(TB) leukemia; 65.3 µM with SK-MEL-2 melanoma; above 100 µM in the test with ACHN renal; above 100 µM in the test on IGROV1 ovarian; above 100 µM in the test on SF-295 CNS; 72.8 µM in the test with NCI-H460 lung. Also, the TGI in the test on U251 CNS was 63.6 µM; in the test on SK-MEL-5 melanoma, 15.6 µM; with HCT-116 colon, above 100 µM; in the test on CAKI-1 renal it was above 100 µM.
